According to patent US11999727B2 (Tango Therapeutics, Inc., priority 2020, dated 2024):

Experiments:
PRMT5 [1] = target: T1, PRMT5 (Homo sapiens, UniProt O14744); experiment: PRMT5 biochemical IC50 assay with SAM as cofactor; details: PRMT5, SAM as cofactor; read-out: SAM IC50
T1 construct: purchased Viva (custom protein)

[2] = system: HAP1 MTAP-deleted cell line; experiment: Viability assay, MTAP-deleted cell line; format: cell-based; details: read-out: HAP1 MTAP deleted viability
From the text: Table 1 additionally indicates IC50 values in a viability assay for the MTAP-deleted cell line (column 10), indicating the effect of treatment with compound on cell survival.

[3] = system: HAP1 MTAP-deleted cell line; experiment: SDMA in-cell western assay, HAP1 MTAP-deleted; format: cell-based; details: for IC50: Homo sapiens, HAP1, SDMA in-cell western, HAP1 MTAP-deleted; for MTAP intact/deleted ratio: SDMA in-cell western
Method in brief: (§1)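 Readout: in-cell western detection of SDMA. Cells: HAP1 expressing endogenous MTAP and an MTAP-null HAP1 counterpart. Output: IC50.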

PRMT5 [4] = target: T1, PRMT5; experiment: PRMT5 biochemical IC50 assay with MTA as cofactor; details: PRMT5, MTA as cofactor; read-out: MTA IC50
PRMT5 [5] = target: T1, PRMT5; experiment: PRMT5 biochemical IC50 assay with no cofactor; details: PRMT5, no cofactor
From the text: Table 1 indicates IC50 values (μM) against PRMT5 for exemplary compounds in the presence of SAM as cofactor, with no cofactor, and with MTA as cofactor, respectively (columns 4-6). […] Ki values can be calculated from the IC50 values as described in the Examples section. As detailed in the Examples section, for the assay performed in the presence of SAM, IC50=Ki×1.5 (Ki=IC50/1.5).

[6] = system: HAP1 MTAP-intact cell line; experiment: SDMA in-cell western assay, HAP1 MTAP-intact; format: cell-based; details: Homo sapiens, HAP1, SDMA in-cell western, HAP1 MTAP-intact; read-out: MTAP HAP1 intact IC50
Method in brief: as §1

[7] = Homo sapiens, HAP1, viability, HAP1 MTAP-deleted cell line
[8] = read-out: HAP 1 MTAP deleted IC50
[9] = IC50 ratio HAP1 MTAP-intact / HAP1 MTAP-deleted
[10] = read-out: No Cofactor/ rel IC50
[11] = Homo sapiens, HAP1, viability assay, MTAP-deleted cell line

T1 sequence (O14744 whole entry): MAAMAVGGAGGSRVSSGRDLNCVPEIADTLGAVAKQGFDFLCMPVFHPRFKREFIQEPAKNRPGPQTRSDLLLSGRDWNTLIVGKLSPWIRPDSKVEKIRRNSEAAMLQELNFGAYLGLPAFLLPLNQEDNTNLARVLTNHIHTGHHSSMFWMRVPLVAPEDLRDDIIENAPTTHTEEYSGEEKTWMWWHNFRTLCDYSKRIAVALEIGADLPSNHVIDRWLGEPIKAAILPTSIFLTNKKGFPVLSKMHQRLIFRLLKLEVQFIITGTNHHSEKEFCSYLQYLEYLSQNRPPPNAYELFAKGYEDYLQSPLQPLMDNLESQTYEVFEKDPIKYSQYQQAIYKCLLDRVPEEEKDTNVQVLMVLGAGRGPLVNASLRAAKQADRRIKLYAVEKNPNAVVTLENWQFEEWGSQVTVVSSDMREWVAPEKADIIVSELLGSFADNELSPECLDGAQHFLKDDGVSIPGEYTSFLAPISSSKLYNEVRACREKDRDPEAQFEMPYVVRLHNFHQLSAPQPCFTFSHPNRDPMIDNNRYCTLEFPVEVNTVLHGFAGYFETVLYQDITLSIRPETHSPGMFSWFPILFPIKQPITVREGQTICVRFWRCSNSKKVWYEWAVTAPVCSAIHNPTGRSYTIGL
T1 sequence (Q9BQA1 whole entry partner): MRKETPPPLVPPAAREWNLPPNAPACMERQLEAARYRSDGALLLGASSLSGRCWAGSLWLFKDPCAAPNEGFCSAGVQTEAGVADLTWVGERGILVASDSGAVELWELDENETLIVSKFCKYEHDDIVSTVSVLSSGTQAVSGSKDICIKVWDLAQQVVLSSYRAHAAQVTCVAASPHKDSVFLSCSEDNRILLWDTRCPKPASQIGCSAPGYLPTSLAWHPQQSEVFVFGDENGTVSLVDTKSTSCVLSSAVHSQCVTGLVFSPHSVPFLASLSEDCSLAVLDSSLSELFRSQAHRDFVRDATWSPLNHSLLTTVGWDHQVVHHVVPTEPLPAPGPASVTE

Structure (SMILES) | IC50 (PRMT5 [1]) | IC50 [3, 8] | IC50 (PRMT5 [4]) | IC50 (PRMT5 [5]; [10]) | IC50 [6] | IC50 (PRMT5 [5]; read-out: No Cofactor/rel IC50) | IC50 ([3]; read-out: HAP1 MTAP deleted IC50) | IC50 [2, 7] | MTAP intact/deleted ratio [3, 9] | IC50 ([2]; Homo sapiens, HAP1, viability IC50, MTAP-deleted cell line) | IC50 [2, 11] | MTAP intact/deleted ratio ([3]; IC50 ratio HAP1 MTAP-intact vs HAP1 MTAP-deleted) | IC50 ([2]; viability assay, MTAP-deleted cell line)
Cc1cncc(NC(=O)C(=O)N2C[C@H](C)CC[C@H]2c2cccc(C)c2)c1 (single isomer, unassigned) [Compound 10] | 0.05 to 0.5 µM | > 1 µM | 0.05 to 0.5 µM | 0.05 to 0.5 µM | > 1 µM |  |  |  | B (an IC50 ratio greater than or equal to 3 fold but lower than 10 fold) |  | > 10 µM |  | 
Cc1cncc(NC(=O)C(=O)N2C[C@@H](C)CC[C@@H]2c2cccc(C)c2)c1 (single isomer, unassigned) [Compound 11] | > 0.5 µM | > 1 µM | > 0.5 µM | > 0.5 µM | > 1 µM |  |  |  | C (an IC50 ratio of less than 3 fold) |  | > 10 µM |  | 
Cc1ccc([C@@H]2CC[C@@H](C)CN2C(=O)C(=O)Nc2cncc(C)c2)cc1 (single isomer, unassigned) [Compound 16] | > 0.5 µM | > 1 µM | 0.05 to 0.5 µM | > 0.5 µM | > 1 µM |  |  |  | B (an IC50 ratio greater than or equal to 3 fold but lower than 10 fold) |  | > 10 µM |  | 
CC[C@@H]1CC[C@@H](c2ccccc2)N(C(=O)C(=O)Nc2cncc(C)c2)C1 (single isomer, unassigned) [Compound 17] | > 0.5 µM | > 1 µM | 0.05 to 0.5 µM | > 0.5 µM | > 1 µM |  |  |  | B (an IC50 ratio greater than or equal to 3 fold but lower than 10 fold) |  | > 10 µM |  | 
Cc1cncc(NC(=O)C(=O)N2C[C@H](C)CC[C@H]2c2ccc(C)c(C)c2)c1 (single isomer, unassigned) [Compound 21] | 0.05 to 0.5 µM | > 1 µM | 0.05 to 0.5 µM | 0.05 to 0.5 µM | > 1 µM |  |  |  | B (an IC50 ratio greater than or equal to 3 fold but lower than 10 fold) |  | > 10 µM |  | 
Cc1cc(NC(=O)C(=O)N2CCCC[C@H]2c2cccs2)cnc1N (single isomer, unassigned) [Compound 22] | > 0.5 µM | > 1 µM | 0.05 to 0.5 µM | > 0.5 µM | > 1 µM |  |  |  | B (an IC50 ratio greater than or equal to 3 fold but lower than 10 fold) |  | > 10 µM |  | 
Cc1cc(NC(=O)C(=O)N2CCCC[C@@H]2c2cccs2)cnc1N (single isomer, unassigned) [Compound 24] | 0.05 to 0.5 µM | < 0.1 µM | < 0.05 µM | 0.05 to 0.5 µM | > 1 µM |  |  |  | A (an IC50 ratio greater than or equal to 10 fold) |  | > 10 µM |  | 
Cc1cc(NC(=O)C(=O)N2CCCC[C@H]2C2CCCCC2)cnc1N (single isomer, unassigned) [Compound 34] | > 0.5 µM | > 1 µM | > 0.5 µM | > 0.5 µM | > 1 µM |  |  |  | C (an IC50 ratio of less than 3 fold) |  | > 10 µM |  | 
Cc1cc(NC(=O)C(=O)N2CCCC[C@@H]2C2CCCCC2)cnc1N (single isomer, unassigned) [Compound 42] | 0.05 to 0.5 µM | < 0.1 µM | < 0.05 µM | 0.05 to 0.5 µM | > 1 µM |  |  |  | A (an IC50 ratio greater than or equal to 10 fold) |  | 1 to 10 µM |  | 
Cn1nccc1C1CCCCN1C(=O)C(=O)Nc1cncc(C(N)=O)c1 (single isomer, unassigned) [Compound 46] | 0.05 to 0.5 µM | 0.1 to 1 µM | < 0.05 µM | 0.05 to 0.5 µM | > 1 µM |  |  |  | A (an IC50 ratio greater than or equal to 10 fold) |  |  |  | > 10 µM
Cc1cc(NC(=O)C(=O)N2CCCC[C@H]2c2ccncc2)cnc1N (single isomer, unassigned) [Compound 47] | > 0.5 µM | > 1 µM | > 0.5 µM | > 0.5 µM | > 1 µM |  |  |  | C (an IC50 ratio of less than 3 fold) |  | > 10 µM |  | 

Second part, led by results:

IC50 (PRMT5 [1]) | IC50 [3, 8] | IC50 (PRMT5 [4]) | IC50 (PRMT5 [5]; [10]) | IC50 [6] | IC50 (PRMT5 [5]; read-out: No Cofactor/rel IC50) | IC50 ([3]; read-out: HAP1 MTAP deleted IC50) | Structure (SMILES) | IC50 [2, 7] | MTAP intact/deleted ratio [3, 9] | IC50 ([2]; Homo sapiens, HAP1, viability IC50, MTAP-deleted cell line) | IC50 [2, 11] | MTAP intact/deleted ratio ([3]; IC50 ratio HAP1 MTAP-intact vs HAP1 MTAP-deleted) | IC50 ([2]; viability assay, MTAP-deleted cell line)
0.05 to 0.5 µM | < 0.1 µM | 0.05 to 0.5 µM | 0.05 to 0.5 µM | 0.1 to 1 µM |  |  | CCc1cc(NC(=O)C(=O)N2C[C@@H](C)[C@H](OC(C)C)C[C@@H]2c2ccc3scnc3c2)cnc1N (racemic) [Compound 1343, N-(6-Amino-5-ethyl-3-pyridyl)-2-[(2S,4S,5S)-2-(1,3-benzothiazol-5-yl)-4-isopropoxy-5-methyl-1-piperidyl]-2-oxo-acetamide] | < 1 µM | A (an IC50 ratio greater than or equal to 10 fold) |  |  |  | 
0.05 to 0.5 µM | < 0.1 µM | < 0.05 µM | 0.05 to 0.5 µM | 0.1 to 1 µM |  |  | C[C@@H]1CC[C@@H](c2ccc3sc(CCN(C)C)nc3c2)N(C(=O)C(=O)Nc2cncc(C(N)=O)c2)C1 (racemic) [Compound 1355, 5-(2-(2-(2-(2-(dimethylamino)ethyl)benzo[d]thiazol-5-yl)-5-methylpiperidin-1-yl)-2-oxoacetamido)nicotinamide] | < 1 µM | A (an IC50 ratio greater than or equal to 10 fold) |  |  |  | 
< 0.05 µM | < 0.1 µM | < 0.05 µM | < 0.05 µM | < 0.1 µM |  |  | CCc1cc(NC(=O)C(=O)N2CC(C)CCC2c2ccc3sc(C4CCN(C)CC4C)nc3c2)cnc1N (racemic) [Compound 1373, N-(6-amino-5-ethyl-3-pyridyl)-2-oxo-2-[rac-(2R,5S)-5-methyl-2-[2-[rac-(3S,4S)-1,3-dimethyl-4-piperidyl]-1,3-benzothiazol-5-yl]-1-piperidyl]acetamide] | < 1 µM | B (an IC50 ratio greater than or equal to 3 fold but lower than 10 fold) |  |  |  | 
0.05 to 0.5 µM | < 0.1 µM | < 0.05 µM | < 0.05 µM | 0.1 to 1 µM |  |  | CCc1cc(NC(=O)C(=O)N2C[C@@H](C)CC[C@@H]2c2ccc(N3CCN(CC)CC3)c(C)c2)cnc1N (racemic) [Compound 1376, N-(6-Amino-5-ethyl-3-pyridyl)-2-oxo-2-[rac-(2R,5S)-2-[4-(4-ethylpiperazin-1-yl)-3-methyl-phenyl]-5-methyl-1-piperidyl]acetamide] | < 1 µM | A (an IC50 ratio greater than or equal to 10 fold) |  |  |  | 
0.05 to 0.5 µM | < 0.1 µM | < 0.05 µM | 0.05 to 0.5 µM | < 0.1 µM |  |  | CCc1cc(NC(=O)C(=O)N2C[C@@H](C)CC[C@@H]2c2ccc3nn([C@@H]4CCN(C)C4)cc3c2)cnc1N (racemic) [Compound 1398, N-(6-Amino-5-ethyl-3-pyridyl)-2-oxo-2-[rac-(2R,5S)-5-methyl-2-[2-[rac-(3R)-1-methylpyrrolidin-3-yl]indazol-5-yl]-1-piperidyl]acetamide] | < 1 µM | A (an IC50 ratio greater than or equal to 10 fold) |  |  |  | 
0.05 to 0.5 µM | < 0.1 µM | < 0.05 µM |  | 0.1 to 1 µM | < 0.05 µM |  | Cc1cc(NC(=O)C(=O)N2C[C@H](C)CC[C@H]2c2ccc3c(c2)CCC(=O)N3)cnc1C (relative stereo) [Compound 632] |  | A (an IC50 ratio greater than or equal to 10 fold) | < 1 µM |  |  | 
0.05 to 0.5 µM |  | < 0.05 µM |  | < 0.1 µM | < 0.05 µM | < 0.1 µM | CO[C@H]1C[C@H](c2ccc3scnc3c2)N(C(=O)C(=O)Nc2cnc(N)c(C)c2)C[C@H]1C (relative stereo) [Compound 1216] |  |  |  | < 1 µM | B (an IC50 ratio greater than or equal to 3 fold but lower than 10 fold) | 
0.05 to 0.5 µM | < 0.1 µM | < 0.05 µM | < 0.05 µM | 0.1 to 1 µM |  |  | CCc1cc(NC(=O)C(=O)N2C[C@@H](C)CC[C@@H]2c2ccc3sc(C(F)(F)CN(C)C)nc3c2)cnc1N (relative stereo) [Compound 1280] | < 1 µM | A (an IC50 ratio greater than or equal to 10 fold) |  |  |  | 
0.05 to 0.5 µM | < 0.1 µM | < 0.05 µM | < 0.05 µM | 0.1 to 1 µM |  |  | CCc1cc(NC(=O)C(=O)N2C[C@@H](C)CC[C@@H]2c2ccc(N3CC[C@@H]4CN(C)C[C@@H]4C3)cc2)cnc1N (relative stereo) [Compound 1349] | < 1 µM | A (an IC50 ratio greater than or equal to 10 fold) |  |  |  | 
